Source: patent US20250100962A1 (CITY OF HOPE, priority 2023, published 2025)

Assays:
mdx primary myoblasts = assay: EdU proliferation in mdx primary myoblasts; format: cell-based, mouse; details: 0.5-1 μM; 6 hours
From the text: FIGS. 16A-16B. Pro-myogenic effect of chlorhexidine on dystrophin-deficient mdx primary myoblasts. FIG. 16A: We used primary myoblasts isolated from male mdx mice as a cellular model to test the effect of CHX on myogenesis. […] Both of the pro-myogenic and proliferative effects of CHX observed in mdx primary myoblasts were consistent with prior findings from C2C12 myoblasts. Additional validations of these effects are on-going using myoblasts derived from human DMD patients.

C2C12 myoblasts = assay: Wound healing assay of C2C12 myoblasts; format: cell-based, mouse; details: 8 and 24 hours; 0.2 to 1 μM; vs DMSO
Description: Cells were seeded at 12×10^5 concentration on 6 well plates until 90% coverage and treated with compounds as indicated and controls while maintained 10% FBS 1% PSG DMEM. Scratch wounds were made with disposable cells scrapers and pictures were taken at hours 0, 4, 8, 24 and 48 following scratch. The results were measured as percentage coverage over original wound area based on image quantification. Area of wound closure was measured using Image J software.

C2C12 myoblast cell line = assay: MTT cell viability of C2C12 myoblasts; format: cell-based; details: 0.2-5 μM for 48 hours
Description: Cells were seeded at 5×10^4 concentration in 100 μl culture medium into 96 wells flat bottom microplates and treated after 24 h with desired compounds and controls. After desired incubation periods, cells were treated with MTT labeling reagent 1× (MTT (3-[4,5-dimethylthiazol-2-yl]-2,5-diphenyltetrazolium bromide labeling reagent, 5 mg/ml in PBS, Roche Cell Proliferation Kit I (MTT)) and Solubilization buffer 1× (10% SDS in 0.01 M HCl and left overnight. Next morning absorbance was measured at 570 nm and 700 nm on microplate (ELISA) reader (TECAN infinite M200pro). The mean and standard deviation values were calculated for each well and graphed.
FIGS. 41A-41D. Effect of Chlorhexidine (CHX) and CM002 treatment on viability of mouse and human myoblasts. To determine potential toxic effects of CHX and CM002, we treated mouse C2C12 myoblast cell line with increasing concentrations from 0.2-5 μM for 48 hours and determined cell viability using the MTT assay (FIG. 41A). […] Considering the inflammatory milieus in dystrophic muscles, we further tested the tolerance of myoblasts to these molecules in the presence of inflammatory stimuli, a cytokine cocktail (CC) consisted of 10 ng/mL IL-1β, 100 ng/mL IFN-γ and 25 ng/mL of TNF-α (FIG. 41B). […] Lastly, human primary myoblasts derived from Duchene Muscular Dystrophy (DMD) patients were used to determine their tolerance to these compounds.

3T3-L1 preadipocytes = assay: Adipogenic differentiation of 3T3-L1 preadipocytes; format: cell-based
Description: Cell culture and adipogenic differentiation. 3T3-L1 and C3H10T1/2 cell lines were obtained from ATCC, and maintained in DMEM with 10% fetal bovine serum supplemented with 1% Penicillin-Streptomycin-Glutamine, as previously described (Nam, Guo, Chatterjee et al., 2015; Liu, Xiong, Nam et al., 2020). 0.25% Trypsin was used for digestion and passaging of these cell lines. For adipogenic differentiation induction media (1.6 μM insulin, 1 μM dexamethasone, 0.5 mM IBMX, 0.5 uM Rosiglitazone) was used for 3 days followed by maintenance medium with insulin for 3 days for 3T3-L1 and 5 days for C3H10T1/2 cells, as previously described (Liu et al., 2020). Oil-red-O and Bodipy staining. These stainings for neutral lipids during adipogenic differentiation were performed as previously described (Nam et al., 2015). Briefly, for oil-red-O staining, cells were fixed using 10% formalin and incubated using 0.5% oil-red-O solution for 1 hour. Bodipy 493/503 was used at 1 mg/L together with DAPI for 15 minutes, following 4% paraformaldehyde fixation and permeabilization with 0.2% triton-X100. Immunoblot analysis. Total protein was extracted using lysis buffer containing 3% NaCl, 5% Tris-HCl, 10% Glycerol, 0.5% Triton X-10 in MilliQ water with protease inhibitor cocktail. 20-40 μg of total protein was resolved on 10% SDS-PAGE gels followed by immunoblotting on PVDF membranes (Bio-rad). […]

[1] = tested on: CLOCK and Bmal1 interaction; assay: Co-immunoprecipitation of Bmal1 with Myc-CLOCK; format: cell-based
[2] = tested on: primary myoblasts derived from patients with Duchene Muscular Dystrophy; assay: Myogenic induction in human DMD primary myoblasts (immunoblot); format: cell-based; details: 3 days of differentiation
From the text: FIGS. 40A-40B. Chlorhexidine and CM002 promote myogenic induction in human DMD primary myoblasts. Using primary myoblasts derived from patients with Duchene Muscular Dystrophy, we determined the effect of Chlorhexidine and CM002 on promoting myogenic induction.

mdx mice [3] = assay: Maximal lethal dose by daily intraperitoneal injection in mdx mice; format: in vivo
Description: (§1) FIGS. 48A-48C. Systemic delivery of CM002 by intraperitoneal injection improves muscle strength in dystrophic mdx mice. Based on the PK analysis, we determined the maximal lethal dose in mdx mice via daily intraperitoneal injections using escalating doses. Starting doses were tested at 10, 20 and 30 mg/Kg/day, for 3 consecutive days in male or female mdx mice (FIG. 48A).

C57/BL6 mice = assay: Metabolic cage monitoring of C57/BL6 mice after intraperitoneal injection; format: in vivo, mouse; details: 5 mg/Kg IP daily
Description: To examine potential effects of CM002 on central clock located in suprachiasmatic nuclei that controls food intake, activity and sleep rhythms, we administered CM002 (5 mg/Kg) together with DMSO as vehicle control using daily IP injections in normal C57/BL6 mice. Mice received daily injections for 3 doses and their food and water intake, activity level and energy expenditure were monitored using metabolic cages for 3 days.

mdx mice [4] = format: in vivo; details: 10 mg/kg IP daily, 3 doses; vs non-treated or DMSO
Description: as §1

With `[H]/N=C(\N/C(=N/[H])NCCCCCCNC(=N)NC(=N)Nc1ccc(Cl)cc1)Nc1ccc(Cl)cc1` [CHX, chlorhexidine] the “increase of rate of proliferation (EdU)” value (mdx primary myoblasts) was roughly 22%, the “wound area closure (migration)” value (C2C12 myoblasts) was “significantly increased” and the “concentration at which number of viable cells drops” value (C2C12 myoblast cell line) was 2500 nM. The “formation of lipid-laden mature adipocyte” value (3T3-L1 preadipocytes; day 6, oil-red-O, Bodipy) was “sufficient to inhibit the formation of lipid-laden mature adipocyte in a dose-dependent manner”, the “C/EBPα and PPARγ levels” value (3T3-L1 preadipocytes; differentiation day 6) was “only moderate tendency of lowering of C/EBPα and PPARγ levels” and the “Bmal1 interaction with CLOCK C267 mutant” value ([1]; Cysteine to Alanine mutant of CLOCK) was “failed to increase Bmal1 interaction with CLOCK C267 mutant”. The “Bmal1 immunoprecipitated by Myc-CLOCK (CLOCK/Bmal1 interaction)” value ([1]; wild-type CLOCK, CHX 0.5 and 1 μM) was “sufficient to augment their interaction”.

In the case of `CCCCCC/C=N/C(=N)NC(=N)Nc1ccc(Cl)cc1` [CM002], the “MyoD and Myogenin protein (myogenic factors)” value [2] is reported as “Robust inductions of MyoD and Myogenin protein”, the Bmal1 protein expression ([2]; 0.2 and 0.5 μM) is reported as “significantly elevated protein expression of Bmal1” and the “lethality at 20 mg/kg” value (mdx mice [3]; IP injection) is reported as “young adult mice at 14 weeks of age were succumbed to death, while older mice over 6 months of age survived”. The “lethality at 30 mg/kg” value (mdx mice [3]; IP injection) was “most mice injected at 30 mg/kg deceased”, the lethal dose (mdx mice [3]; intraperitoneal, 3 consecutive days) was “over 20 mg/kg/day” and the “tolerability at 10 mg/kg” value (mdx mice [3]; male mice of 10-14 weeks, IP) was “tolerated 10 mg/kg well without any lethality”. The “daily ambulatory activity levels” value (C57/BL6 mice) was “tendency toward reduction although not significantly altered”, the water consumption (C57/BL6 mice) was “remains comparable between groups” and the “accumulative food consumption, relative to normal food intake level” value (C57/BL6 mice; 3 doses, after 3 days) was roughly 25%. The energy expenditure (C57/BL6 mice; calculated from oxygen consumption) was “persistently elevated” and the “increase of grip strength” value (mdx mice [4]) was roughly 16%.
